Measured values published in patent US20210401931A1, “METHODS AND MATERIALS FOR TREATING CANCER” (Mayo Foundation for Medical Education and Research, priority 2018, published 2021).
“Also recorded” adds a separate entry of the source.

T1: retinoblastoma protein RB (endogenous) (human, UniProt P06400 2-928)
T1 construct: Endogenous protein of cell lysates, phosphorylation state as in the cells; also called RB1; endogenous RB
T1 sequence (looked up): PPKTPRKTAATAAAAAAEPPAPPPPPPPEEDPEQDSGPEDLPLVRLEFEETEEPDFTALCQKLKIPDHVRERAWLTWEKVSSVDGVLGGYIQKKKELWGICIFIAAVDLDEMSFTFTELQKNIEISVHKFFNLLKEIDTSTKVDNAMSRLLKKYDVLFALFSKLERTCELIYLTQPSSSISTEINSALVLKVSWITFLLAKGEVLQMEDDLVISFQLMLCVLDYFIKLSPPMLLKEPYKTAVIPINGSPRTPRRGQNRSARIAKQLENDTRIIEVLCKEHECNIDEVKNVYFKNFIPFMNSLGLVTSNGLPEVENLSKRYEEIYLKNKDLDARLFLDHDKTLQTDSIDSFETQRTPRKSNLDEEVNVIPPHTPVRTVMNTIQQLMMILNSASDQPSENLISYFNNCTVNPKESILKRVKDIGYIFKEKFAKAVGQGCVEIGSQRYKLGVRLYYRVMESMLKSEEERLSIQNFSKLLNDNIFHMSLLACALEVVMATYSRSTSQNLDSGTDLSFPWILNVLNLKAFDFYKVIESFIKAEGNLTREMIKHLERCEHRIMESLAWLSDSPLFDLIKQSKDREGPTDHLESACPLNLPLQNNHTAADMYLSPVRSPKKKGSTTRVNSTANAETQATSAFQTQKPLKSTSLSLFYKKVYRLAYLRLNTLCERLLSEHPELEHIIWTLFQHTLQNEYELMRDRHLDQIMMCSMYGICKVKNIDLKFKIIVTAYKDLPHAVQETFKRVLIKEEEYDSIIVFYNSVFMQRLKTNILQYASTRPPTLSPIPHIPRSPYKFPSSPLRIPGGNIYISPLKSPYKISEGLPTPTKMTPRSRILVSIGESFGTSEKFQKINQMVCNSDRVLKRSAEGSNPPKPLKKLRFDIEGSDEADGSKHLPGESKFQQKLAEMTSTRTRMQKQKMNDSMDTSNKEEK


Tests used:
PD-L1 mRNA = PD-L1 mRNA expression by RT-qPCR in PC-3 cells treated with chemicals; type: cell-based, human; conditions: 24 hours; for PD-L1 mRNA expression: RT-qPCR; for palbociclib-induced elevation of PD-L1: co-treatment with palbociclib
Method: FIGS. 1A-K. RB suppresses PD-L1 mRNA expression. (A) PC-3 cell were treated with indicated chemicals for 24 hours. Cells were harvested for RT-qPCR. All data were shown as mean values±SD (n=3). * P<0.05, ** P<0.01, *** P<0.001. (B) PC-3 cells were infected with lentivirus expressing control or CDK4 and CDK6-specific shRNAS. 72 hours after infection, cells were harvested for RT-qPCR. All data were shown as mean values±SD (n=3). *** P<0.001. (C-F) PC-3 cells were infected with lentivirus expressing control or RB1-specific shRNAs. 48 hours after infection, PD-L1 protein levels were determined by western blotting (C), RT-qPCR (D), FACS (E), and IFC (F). All data were shown as mean values±SD (n=3). * P<0.05, ** P<0.01, *** P<0.001. (G) PD-L1 mRNA levels were determined by RT-qPCR in SKO and DKO mouse prostate tumor cells. All data were shown as mean values±SD (n=3). * P<0.05, ** P<0.01, *** P<0.001. (H-J) SKO (H), DKO (I), and Rb^−/−PrE (J) cells were treated with palbociclib for 24 hours. Cells were harvested for RT-qPCR. All data were shown as mean values±SD (n=3). * P<0.05, ** P<0.01, *** P<0.001. (K) The putative copy-number calls for RB1 were determined using GISTC 2.0, and the mRNA expression for CD274(PD-L1) was measured by log 2(RPKM), here RPKM stands for Reads Per Kilobase of transcript per Million mapped reads. […] The nonparametric Mann-Whitney U test was used for the statistical test.
FIGS. 8A-D. (A) PC-3, MIA PaCa-2, H1299, SK-Hep1, and PTEN-CaP8 cells were treated with different doses of palbociclib for 24 hours. Cells were harvested for RT-qPCR. All data were shown as mean values±SD (n=3). * P<0.05, ** P<0.01. (B) PC-3 cell were treated with indicated chemicals for 24 hours. Cells were harvested for RT-qPCR. All data were shown as mean values±SD (n=3). Ns, not significant, * P<0.05, ** P<0.01. (C, D) PC-3 cells were infected with lentivirus expressing control shRNA or RB1-specific shRNA. 24 hours after puromycin selection, cells were treated with or without Helenalin (2 μM) for 24 hours. Cells were harvested for western blotting analysis (C) and RT-qPCR (D). All data were shown as mean values±SD (n=3). Ns, not significant, *** P<0.001.
FIGS. 13A-F. (A, B) PC-3 cells were treated with or without gamma irradiation (IR) (12 Gy). 24 hours post treatment, cells were treated with or without Helenalin (2 μM). 24 hours after treatment, cells were harvested for western blotting analysis (A) and RT-qPCR analysis (B). All data were shown as mean values±SD (n=3). “ns”=not significant, *** P<0.001. (C) PTEN-CaP8 cells were infected with lentivirus expression Tsin control or Tsin-RL S249D/T252D peptide. 72 hours post infection, cell were harvested for western blotting analysis. (D, E) PTEN-CaP8 cells were infected with lentivirus expression Tsin control or Tsin-RL S249D/T252D peptide. 72 hours post infection, cells were treated with or without gamma irradiation (12 Gy) for 48 hours. Cells were harvested for MTS assay (D) and RT-qPCR (E). All data were shown as mean values±SD (n=3). “ns”=not significant, ** P<0.01; *** P<0.001. (F) Schematic diagram depicting the treatment plan for mice bearing subcutaneous PTEN-CaP8 tumors.
Total RNA was isolated using TRIzol reagent (Thermo Fisher Scientific). The NanoDrop 2000 spectrophotometer (Thermo Fisher Scientific) was used to assess RNA yield and quality. RNA was reversely transcribed using Superscript reverse transcriptase (Thermo Fisher Scientific) following manufacturer's instructions. Quantitative real-time PCR was performed by mixing cDNA, gene-specific primers, and IQ SYRB Green Supermix and detected by iCycler QTX detection system (Bio-Rad). The 2-ΔCt method was used to quantitate fold changes by normalizing to GAPDH. Primers for RT-qPCR are provided Table 4.

[1] = molecular target: T1, retinoblastoma protein RB (endogenous); assay: co-IP of endogenous proteins in PC-3 cells (FIGS. 2A and 18A)

Row | binding result [1] | Molecule | PD-L1 mRNA expression (PD-L1 mRNA; PC-3 cells) | further results
1 |  | CN1CC[C@H](c2c(O)cc(O)c3c(=O)cc(-c4ccccc4Cl)oc23)[C@H](O)C1 [flavopiridol] | dramatic downregulation | palbociclib-induced elevation of PD-L1 (PD-L1 mRNA; PC-3 cells): completely abolished
2 |  | Cc1sc2c(c1C)C(c1ccc(Cl)cc1)=N[C@@H](CC(=O)OC(C)(C)C)c1nnc(C)n1-2 [JQ1] | dramatic downregulation | 
3 |  | C=C1C(=O)O[C@@H]2C[C@@H](C)[C@@H]3C=CC(=O)[C@@]3(C)[C@@H](O)[C@H]12 [helenalin] | decreased | RB knockdown-induced PD-L1 upregulation (PD-L1 mRNA; PC-3 cells with RB1 shRNA, Helenalin 2 μM): completely blocked; also recorded: inhibited; gamma irradiation-induced PD-L1 expression (PD-L1 mRNA; PC-3 cells, 12 Gy, Helenalin 2 μM): abrogated; palbociclib-induced elevation of PD-L1 (PD-L1 mRNA; PC-3 cells): completely abolished
4 |  | CC[C@H](CO)Nc1nc(NCc2ccccc2)c2ncn(C(C)C)c2n1 [roscovitine] | dramatic downregulation | 
5 | no binding | RelB (other, human, UniProt Q01201 1-579, looked up) MLRSGPASGPSVPTGRAMPSRRVARPPAAPELGALGSPDLSSLSLAVSRSTDELEIIDEYIKENGFGLDGGQPGPGEGLPRLVSRGAASLSTVTLGPVAPPATPPPWGCPLGRLVSPAPGPGPQPHLVITEQPKQRGMRFRYECEGRSAGSILGESSTEASKTLPAIELRDCGGLREVEVTACLVWKDWPHRVHPHSLVGKDCTDGICRVRLRPHVSPRHSFNNLGIQCVRKKEIEAAIERKIQLGIDPYNAGSLKNHQEVDMNVVRICFQASYRDQQGQMRRMDPVLSEPVYDKKSTNTSELRICRINKESGPCTGGEELYLLCDKVQKEDISVVFSRASWEGRADFSQADVHRQIAIVFKTPPYEDLEIVEPVTVNVFLQRLTDGVCSEPLPFTYLPRDHDSYGVDKKRKRGMPDVLGELNSSDPHGIESKRRKKKPAILDHFLPNHGSGPFLPPSALLPDPDFFSGTVSLPGLEPPGGPDLLDDGFAYDPTAPTLFTMLDLLPPAPPHASAVVCSGGAGAVVGETPGPEPLTLDSYQAPGPGDGGTASLVGSNMFPNHYREAAFGGGLLSPGPEAT |  | 
6 | no binding | p52 (other, human, UniProt Q00653 1-454, looked up) MESCYNPGLDGIIEYDDFKLNSSIVEPKEPAPETADGPYLVIVEQPKQRGFRFRYGCEGPSHGGLPGASSEKGRKTYPTVKICNYEGPAKIEVDLVTHSDPPRAHAHSLVGKQCSELGICAVSVGPKDMTAQFNNLGVLHVTKKNMMGTMIQKLQRQRLRSRPQGLTEAEQRELEQEAKELKKVMDLSIVRLRFSAFLRASDGSFSLPLKPVISQPIHDSKSPGASNLKISRMDKTAGSVRGGDEVYLLCDKVQKDDIEVRFYEDDENGWQAFGDFSPTDVHKQYAIVFRTPPYHKMKIERPVTVFLQLKRKRGGDVSDSKQFTYYPLVEDKEEVQRKRRKALPTFSQPFGGGSHMGGGSGGAAGGYGGAGGGGSLGFFPSSLAYSPYQSGAGPMGCYPGGGGGAQMAATVPSRDSGEEAAEPSAPSRTPQCEPQAPEMLQRAREYNARLFGLA |  | 
7 | no binding | c-Rel (other, human, UniProt Q04864 2-619, looked up) ASGAYNPYIEIIEQPRQRGMRFRYKCEGRSAGSIPGEHSTDNNRTYPSIQIMNYYGKGKVRITLVTKNDPYKPHPHDLVGKDCRDGYYEAEFGQERRPLFFQNLGIRCVKKKEVKEAIITRIKAGINPFNVPEKQLNDIEDCDLNVVRLCFQVFLPDEHGNLTTALPPVVSNPIYDNRAPNTAELRICRVNKNCGSVRGGDEIFLLCDKVQKDDIEVRFVLNDWEAKGIFSQADVHRQVAIVFKTPPYCKAITEPVTVKMQLRRPSDQEVSESMDFRYLPDEKDTYGNKAKKQKTTLLFQKLCQDHVETGFRHVDQDGLELLTSGDPPTLASQSAGITVNFPERPRPGLLGSIGEGRYFKKEPNLFSHDAVVREMPTGVSSQAESYYPSPGPISSGLSHHASMAPLPSSSWSSVAHPTPRSGNTNPLSSFSTRTLPSNSQGIPPFLRIPVGNDLNASNACIYNNADDIVGMEASSMPSADLYGISDPNMLSNCSVNMMTTSSDSMGETDNPRLLSMNLENPSCNSVLDPRDLRQLHQMSSSSMSAGANSNTTVFVSQSDAFEGSDFSCADNSMINESGPSNSTNPNSHGFVQDSQYSGIGSMQNEQLSDSFPYEFFQV |  | 
